Data on 3 compounds can be found in patent US20150209316A1, “AGENT FOR ENHANCING IMMUNITY CONTAINING GLUTATHIONE” (KYOWA HAKKO BIO CO., LTD., priority 2012, published 2015).

In data set [1] the test system is lymphocyte. The following applies: by administering 2-ME; cited from earlier work.
Data set [2] relates to human K562 cells. The following applies: after 3 months.
Experimental: The design included the recruitment of healthy subjects (28-79 yr. of age, mean=46.6 years) randomized into 3 groups (GSH at 1000 mg/day, GSH at 250 mg/day, and placebo). […] Blood samples were obtained from all subjects at baseline. […] Capsules were formulated, and subjects began supplementation according to the following schedule as follows: • Group A, GSH: 500 mg/capsule and cellulose: 15 mg/capsule, (2 pills daily); • Group B, GSH: 125 mg/capsule and cellulose: 360 mg/capsule, (2 pills daily); • Group C (placebo), cellulose: 470 mg/capsule, (2 pills daily).
Eligible participants were randomly assigned to either placebo (Group C) or high (Group A) or low (Group B) dose glutathione groups. […]
(§1) Blood samples were collected from an antecubital vein into 3 tubes containing sodium heparin as an anticoagulant and immediately placed on ice. […] Cell number was assessed after addition of 40 μl trypan blue to 10 μl of cell suspension using a hemocytometer. […]
NK Cell Cytotoxicity—NK cell cytotoxicity was assessed using human K562 cells, labeled with sodium ^51chromate as target cell. […] Lymphocyte samples from each of the five time points were thawed, washed 3 times, counted to determine cell viability and added in triplicate to the wells at an effector:target cell ratio of 10:1. After incubation for 4 hr. at 37° C., cells were collected and supernatant analyzed for radioactivity by gamma counting. […]
In data set [3] the test system is murine-derived splenic lymphocytes. The following applies: in vitro; cited from earlier work.
For data set [4], the system named is lymphocytes. The conditions noted are these: after 3 months, both GSH groups (250 and 1000 mg/day oral), dose dependent.
Experimental: The design included the recruitment of healthy subjects (28-79 yr. of age, mean=46.6 years) randomized into 3 groups (GSH at 1000 mg/day, GSH at 250 mg/day, and placebo). […] Blood samples were obtained from all subjects at baseline. Subjects began supplementation according to the following schedule: Glutathione capsules were provided by the sponsor, Kyowa Hakko USA. Capsules were formulated, and subjects began supplementation according to the following schedule as follows: • Group A, GSH: 500 mg/capsule and cellulose: 15 mg/capsule, (2 pills daily); • Group B, GSH: 125 mg/capsule and cellulose: 360 mg/capsule, (2 pills daily); • Group C (placebo), cellulose: 470 mg/capsule, (2 pills daily). […]
as §1
Lymphocyte Proliferation—Lymphocyte samples from each of the 5 time points (0, 1, 3, 6, and 7 months) were thawed, washed 3 times and counted to determine cell viability. […] Cell proliferation was monitored by 3H-thymidine incorporation. Intracellular radioactivity was measured by liquid scintillation counting and results were expressed as cpm.
For data set [5], the system named is murine-derived splenic lymphocytes. The following applies: in vitro; cited from earlier work. The source holds these as a separate data set.
Data set [6] deals with NK cell. The following applies: oral administration to a human; cited from earlier work.
The conditions of data set [7]: oral administration to a human; cited from earlier work.
The subject of data set [8] is lymphocyte. The conditions noted are these: oral administration to a human; cited from earlier work.

Take `OCCS` [2-melcaptoethanol]: the lymphocyte proliferation entry in data set [1] was “lymphocyte proliferation action”.

On to `N[C@@H](CCC(=O)N[C@@H](CS)C(=O)NCC(=O)O)C(=O)O` [GSH, γ-L-Glu-L-Cys-Gly], for which the “mean % lysis values (NK cell cytotoxicity)” value in data set [2] (both GSH groups (250 and 1000 mg/day oral), dose dependent, effector:target 10:1) is “Increases in mean % lysis values were observed”. For the same compound, the “significance of increase in % lysis versus baseline” value in data set [2] (high GSH dose arm 1000 mg/day, Ppaired=0.01) is listed as “only significant in the high GSH dose arm”. Under “Group A, 1000 mg/day oral, 1 and 6 months, chi-square test”, the “glutathione concentration in lymphocytes compared to placebo group (Group C)” value is listed as “significant difference (p<0.05)”. In addition, for the setting “high dose GSH group (1000 mg/day oral), after 6 months”, the “maximum increase of lymphocyte total glutathione” value was “about 30%”. Further, the “time course of lymphocyte glutathione levels” value (high dose group (1.0 g/day oral), 1, 3, 6 months) is given as “levels progressively increasing from 1 to 3 to 6 months of administration”. Moreover, the “NK cell cytotoxic activity” value in data set [3] is listed as “increased in a GSH concentration dependent fashion”. In data set [4], the “mean proliferative capacity of lymphocytes (3H-thymidine, cpm)” value was “Increases in mean proliferative capacity were observed”. Moreover, the “Con A induced lymphocyte proliferation activity” value in data set [5] is on record as “increased in a GSH concentration dependent fashion”.

For `CC(=O)N[C@@H](CS)C(=O)O` [N-acetylcysteine], the “NK cell cytotoxic activity” value in [6] is “increased”. In addition, the “glutathione concentration in immune cells” value in data set [7] is “increased”. Moreover, in [8], the “PHA stimulated lymphocyte proliferation” value is given as “increased”.
